Test results taken from US8552035B2, “Phenanthrenone compounds, compositions and methods” (Pfizer Inc., priority 2008, dated 2013).

How the values were obtained:
Assay type in all cases: in vivo
[1] = tested on: Mouse collagen-induced arthritis; assay: Therapeutic mouse collagen-induced arthritis (mCIA); settings: for ED50: 816 h, dosing day 34 to 49, read-out: Therapeutic mCIA (ED50 dose); for Therapeutic mCIA (ED80 dose): dosing day 34 to 49
From the text: Mouse Collagen-induced arthritis is a commonly used chronic, preclinical model of rheumatoid arthritis in which joint swelling and bone destruction occur following immunization with type II collagen. Reduction of disease incidence and severity has been shown previously to be predictive of disease-modification and signs and symptoms mitigation, respectively, in a clinical setting.
In the therapeutic mCIA model, induction of disease incidence and severity was synchronized via LPS stimulation. Male DBA/J mice were immunized with 100 ug of bovine type II collagen (bCII) on day 0. All mice received an intraperitoneal injection of 20 μg of LPS on day 28 and disease was allowed to develop through day 34. At day 34, all mice had disease (incidence=100%) with an average severity score of seven. Dosing of compounds was initiated in the therapeutic mode on day 34 and continued through day 49. Different treatments were compared by measuring the decrease in incidence (i.e., resolution of disease) and the decrease in severity of paw swelling over time.
(§1) ED50 and ED80 values are obtained for the various parameters using four-parameter logistic fits of data. For each experiment/dose group, outliers are detected by calculating the number of standard deviations each mouse's value was from the mean of their group and then dividing by the standard deviation of the group. The means and standard deviations used in this calculation omitted the value being examined so that, if it were an outlier, it would have no influence. If the value being examined is more than 2.5 standard deviations from the mean, it was not used in the rest of the calculations.
(§2) Percent inhibition values are then calculated for each animal using the means of the vehicle and 10 mpk prednisone control groups. The individual mouse percent inhibition values are then fit to a four-parameter logistic model using the area under curve mean for each group. Since all four parameters are estimated and the lower plateau is not fixed at 0% and the upper plateau was not fixed at 100%, the ED50 and ED80 values are calculated by using an inverse calibration formula for a response equal to 50% or 80%. The designation “nd” means not determined.

osteocalcin = assay: 28-day mouse side-effect model, serum osteocalcin suppression; settings: oral gavage 28 days; for ED50 at 28 days: female, Swiss Webster, read-out: Osteocalcin Suppression (ED50 dose)
Description: (§3) 10-12 week old female Swiss Webster mice (Taconic, Germantown, N.Y., U.S.A.) weighing 27-29 grams are used in accordance with the guidelines of the Institutional Animal Care and Use Committee and in accordance with NIH guidelines on laboratory animal welfare. Mice are acclimated to the Pfizer animal facility for 3-7 days prior to being placed on study. Prednisolone and DAGR compounds are administered by oral gavage for a total of 28 days. Each treatment group generally contains 8-10 mice. To establish a dosing regimen for the studies, a pilot pharmacodynamic time course experiment is conducted to quantify TNFa repression after a single ED80 dose (determined from the acute LPS endotoxemia mouse model). […] DAGR compounds vary in their required frequency of doses.
(§4) Body weights are measured on the first and last day of each experiment. Blood samples are obtained after ˜3 weeks of dosing for steady-state pharmacokinetic analysis. To assess compound effects on LPS-induced TNF-a, all mice receive an intraperitoneal injection of LPS (Salmonella Typhosa, Sigma, St. Louis, L-7895) 2.5 hr after the last dose on day 28. Mice are sacrificed 90 min. after LPS administration. Serum samples are assayed for osteocalcin and TNFa using the Linco multiplex assay (St. Charles, Mo.) and Luminex 100 (Austin, Tex.). Samples are diluted 1:20 and the assay is run according to manufacturer's instructions. An osteocalcin standard is purchased separately from Biomedical Technologies Incorporated (Stoughton, Mass.). Serum insulin is measured to assess compound effects on insulin resistance. Insulin was measured using the UltraSensitive Mouse EIA kit from Alpco Diagnostics (Salem, N.H.) following the manufacturer's protocol.
as §1, §2

serum insulin = assay: 28-day mouse side-effect model, serum insulin; settings: oral gavage 28 days; for ED50 at 28 days: female, Swiss Webster, read-out: Insulin (ED50 dose)
Description: as §3, §4, §1, §2

LPS-induced TNFα = assay: 28-day mouse side-effect model, LPS-induced serum TNFα suppression; settings: oral gavage 28 days, LPS challenge; for ED50: 672 h, read-out: TNFα Suppression (ED50 dose)
Description: as §3, §4, §1, §2

bone formation rate = assay: 28-day mouse side-effect model, cortical bone histomorphometry (bone formation rate); settings: oral gavage 28 days, tibia cortical bone formation rate; for ED50 at 28 days: female, Swiss Webster, read-out: BFR (ED50 dose)
Description: as §3
During the in-life portion of each study, mice received two IP injections of the fluorochrome calcein (C-0875; Sigma-Aldrich; 20 mg/kg; 200 μL/mouse), dissolved in 2% sodium bicarbonate, on days 1 and 26 for bone histomorphometry measurements. Fluorochrome labels incorporate into the bone mineral and allow measurement of bone formation rate. During the tissue harvest, the left tibia is excised and cleaned for cortical histomorphometry measurements. After all skin and muscle are removed, tibiae are placed in 70% ethanol (4° C.) in the dark for a minimum of 24 hours.
Ground transverse sections are used for histomorphometric analysis of cortical bone^1. Bones are sectioned using a low speed saw (Isomet, Buehler, Lake Bluff, Ill.) equipped with a diamond wafer blade. The end of each tibia is removed proximal to tibia-fibula synostosis and a […] cross-section is cut. Using a roughened glass plate and a cork, sections are ground to […] until transparent and all labels distinguishable under a fluorescent microscope. Sections are dehydrated using the following solutions for a minimum of 2 minutes each: 1) 70% ethanol, 2) 95% ethanol, 3) 100% ethanol, 4) 50/50 ethanol/xylene, and 5) xylene (twice) (Sigma, St. Louis, 534056). Sections are mounted using Eukitt Quick Mounting Medium (Sigma, St. Louis, 03989) and cover-slipped. Using the Osteomeasure Bone Analysis Program (Decatur, Ga.), bone formation rate is calculated by tracing the 1st and 2nd fluorescent labels in addition to tracing the inner and outer perimeter of the bone. Bone formation rate is calculated by the following equation: (Interlabel Width/Label Interval)*(Labeled Perimeter/Bone Perimeter). At least 5 samples are measured from each treatment group in each study.
as §1, §2

SMILES: Cc1ncccc1NC(=O)c1ccc2c(c1)CC[C@@H]1C[C@@](O)(c3ccccn3)[C@](C)(O)C[C@@]21Cc1ccccc1 [Comparator C, (4bR,6R,7R,8aR)-4b-benzyl-6,7-dihydroxy-6-methyl-N-(2-methylpyridin-3-yl)-7-(pyridin-2-yl)-4b,5,6,7,8,8a,9,10-octahydrophenanthrene-2-carboxamide]
- ED50 [1]: 0.8 mg/kg
- Therapeutic mCIA (ED80 dose) [1]: 2.9
- ED50 at 28 days (osteocalcin): 3.68 mg/kg
- Osteocalcin Suppression (ED80 dose) (osteocalcin): >20
- ED50 at 28 days (serum insulin): > 20 mg/kg
- Insulin (ED80 dose) (serum insulin): >20
- ED50 (LPS-induced TNFα): 3.08 mg/kg
- TNFα Suppression (ED80 dose) (LPS-induced TNFα): 9.87
- ED50 at 28 days (bone formation rate): 3.72 mg/kg
- BFR (ED80 dose) (bone formation rate): 7.88

SMILES: C[C@@]1(O)C[C@@]2(Cc3ccccc3)c3ccc(C(=O)NCc4cccnc4)cc3CC[C@@H]2C[C@@]1(O)c1ccccc1 [Comparator D, (4bR,6R,7R,8aR)-4b-benzyl-6,7-dihydroxy-6-methyl-7-phenyl-N-(pyridin-3-ylmethyl)-4b,5,6,7,8,8a,9,10-octahydrophenanthrene-2-carboxamide]
- ED50 at 28 days (osteocalcin): > 60 mg/kg
- Osteocalcin Suppression (ED80 dose) (osteocalcin): >60
- ED50 at 28 days (serum insulin): > 60 mg/kg
- Insulin (ED80 dose) (serum insulin): >60
- ED50 (LPS-induced TNFα): 11.4 mg/kg
- TNFα Suppression (ED80 dose) (LPS-induced TNFα): 14.48
- ED50 at 28 days (bone formation rate): 35.9 mg/kg
- BFR (ED80 dose) (bone formation rate): >60

SMILES: Cc1ncccc1NC(=O)c1ccc2c(c1)CC[C@@H]1C[C@@](O)(C(F)(F)F)[C@](C)(O)C[C@@]21Cc1ccccc1 [Comparator E, (4bR,6R,7S,8aR)-4b-benzyl-6,7-dihydroxy-6-methyl-N-(2-methylpyridin-3-yl)-7-(trifluoromethyl)-4b,5,6,7,8,8a,9,10-octahydrophenanthrene-2-carboxamide]
- ED50 [1]: 0.13 mg/kg
- Therapeutic mCIA (ED80 dose) [1]: 1.15
- ED50 at 28 days (osteocalcin): 0.78 mg/kg
- Osteocalcin Suppression (ED80 dose) (osteocalcin): >1
- ED50 at 28 days (serum insulin): > 1 mg/kg
- Insulin (ED80 dose) (serum insulin): >1
- ED50 (LPS-induced TNFα): > 1 mg/kg
- TNFα Suppression (ED80 dose) (LPS-induced TNFα): >1
- ED50 at 28 days (bone formation rate): 0.28 mg/kg
- BFR (ED80 dose) (bone formation rate): 0.33
